Reference: ChEMBL document CHEMBL5365455, “Design, synthesis and anticancer activity of N-aryl indolylsulfoximines: Identification of potent and selective anticancer agents” (Bioorg Med Chem, 2023)
The source made the active and inactive calls. The calls are words filed in the database; no cut-off is given here.

Legend:
CWR22R = experiment: Anticancer activity against human 22Rv1 cells assessed as cell growth inhibition measured after 48 hrs by MTT assay; assay type: functional, cell-based; conditions: 22Rv1, 48 h
LNCaP C4-2 [1] = experiment: Anticancer activity against human LNCaP C4-2 cells assessed as cell growth inhibition measured after 48 hrs by MTT assay; assay type: functional, cell-based; conditions: LNCaP C4-2, 48 h
PC-3 = experiment: Anticancer activity against human PC-3 cells assessed as cell growth inhibition measured after 48 hrs by MTT assay; assay type: functional, cell-based; conditions: PC-3, 48 h
MCF7 = experiment: Anticancer activity against human MCF7 cells assessed as cell growth inhibition measured after 48 hrs by MTT assay; assay type: functional, cell-based; conditions: MCF7, 48 h
[2] = (§1) Cytotoxicity against HEK293 cells assessed as cell growth inhibition measured after 48 hrs by MTT assay; assay type: toxicity, cell-based, Homo sapiens; conditions: human, HEK293 cells
HEK293 = experiment: as §1; assay type: toxicity, cell-based, Homo sapiens; conditions: hek293
Cell membrane [3] = experiment: Induction of mitochondrial membrane depolarization in human LNCaP C4-2 cells at 1 ug/ml measured after 48 hrs by JC-1 staining based fluorescence microscopic analysis; assay type: subcellular; conditions: dose 1.0 µg/ml
Tubulin (Homo sapiens) [4] = target: T1, Tubulin (Homo sapiens) (UniProt P68371+Q9H4B7+P0DPH7+P68366+Q13509+Q71U36+P04350+Q3ZCM7+P07437+P68363+Q9BQE3+Q6PEY2+Q13885+Q9BVA1+Q9BUF5); experiment: Induction of tubulin depolymerization in human 22Rv1 cells assessed as decrease in polymerized tubulin level at 20 uM measured after 24 hrs by Bradford assay relative to control; assay type: cell-based; design: scale not given: the % may be the effect or the level left
LNCaP C4-2 [5] = experiment: Induction of apoptosis in human LNCaP C4-2 cells assessed as increase in c-Jun level at 10 uM measured after 48 hrs by Western blot analysis; assay type: functional, cell-based
LNCaP C4-2 [6] = experiment: Induction of apoptosis in human LNCaP C4-2 cells assessed as increase in p53 level at 10 uM measured after 48 hrs by Western blot analysis; assay type: functional, cell-based
LNCaP C4-2 [7] = experiment: Induction of cell death in human LNCaP C4-2 cells assessed as red fluorescence at 10 uM incubated for 48 hrs by ethidium bromide/acridine orange staining based fluorescent microscopic analysis; assay type: functional
LNCaP C4-2 [8] = experiment: Induction of ROS accumulation in human LNCaP C4-2 cells at 10 uM measured after 48 hrs by H2DCFDA dye based inverted fluorescent microscopic analysis; assay type: functional, cell-based
Cell membrane [9] = experiment: Induction of mitochondrial membrane depolarization in human LNCaP C4-2 cells at 10 uM measured after 48 hrs by JC-1 staining based fluorescence microscopic analysis; assay type: subcellular
LNCaP C4-2 [10] = experiment: Inhibition of cell migration in human LNCaP C4-2 cells assessed as reduction in cell motility at 10 uM incubated for 12 to 24 hrs by inverted microscopy based scratch wound healing assay; assay type: functional; conditions: time 12-24 hrs
LNCaP C4-2 [11] = experiment: Inhibition of colony formation in human LNCaP C4-2 cells assessed as decrease in colony number at 10 uM measured after 10 days by crystal violet staining based assay; assay type: functional, cell-based; conditions: time 10.0 day
LNCaP C4-2 [12] = experiment: Induction of cytokinesis defect in human LNCaP C4-2 cells at 10 uM measured after 48 hrs by DAPI staining based fluorescence imaging analysis; assay type: functional, cell-based
Tubulin (Homo sapiens) [13] = target: T1, Tubulin (Homo sapiens); experiment: Induction of tubulin depolymerization in human LNCaP C4-2 cells assessed as shrinkage of tubulin at 10 uM measured after 48 hrs by fluorescence microscopic analysis; assay type: cell-based
Tubulin (Homo sapiens) [14] = target: T1, Tubulin (Homo sapiens); experiment: Induction of tubulin depolymerization in human LNCaP C4-2 cells assessed as tubulin condensation towards nucleus at 10 uM measured after 48 hrs by fluorescence microscopic analysis; assay type: cell-based

Row | Structure (SMILES) | IC50 (LNCaP C4-2 [1]) | IC50 (PC-3) | IC50 (MCF7) | IC50 (CWR22R) | IC50 (HEK293) | other results
1 | COc1cc(N=S(C)(=O)c2c[nH]c3ccccc23)cc(OC)c1OC (configuration not stated) | 10 µM | 21.7 µM | 40 µM | > 40 µM | > 40 µM | 
2 | CS(=O)(=Nc1ccccc1)c1c[nH]c2ccccc12 (configuration not stated) | 8.9 µM | > 40 µM | 10 µM | > 40 µM | > 40 µM | 
3 | COc1ccc2[nH]cc(S(C)(=O)=Nc3cc(OC)c(OC)c(OC)c3)c2c1 (configuration not stated) | > 40 µM | > 40 µM | 38.8 µM | 2.68 µM | > 40 µM | 
4 | CS(=O)(=Nc1ccc(Br)cc1)c1c[nH]c2ccccc12 (configuration not stated) | > 40 µM | 11.1 µM | > 40 µM | > 40 µM | > 40 µM | 
5 | COc1ccc(N=S(C)(=O)c2c[nH]c3ccc(Br)cc23)cc1 (configuration not stated) |  |  | 1.28 µM |  |  | IC50 at 48 h [2]: > 40 µM
6 | COc1ccc(N=S(C)(=O)c2c[nH]c3ccc(OC)cc23)cc1 (configuration not stated) | 40 µM | 12.2 µM | > 40 µM | 2.76 µM | > 40 µM | 
7 | COc1ccc(C[C@H](N)C(=O)N[C@H]2[C@@H](O)[C@H](n3cnc4c(N(C)C)ncnc43)O[C@@H]2CO)cc1 |  |  |  |  |  | Activity (Cell membrane [3]): Active
8 | COc1cc(N=S(C)(=O)c2cn(Cc3ccc(Cl)cc3)c3ccccc23)cc(OC)c1OC (configuration not stated) | 40 µM | > 40 µM |  | > 40 µM | > 40 µM | 

More lines, main results first:

Row | IC50 (LNCaP C4-2 [1]) | IC50 (PC-3) | IC50 (MCF7) | Structure (SMILES) | IC50 (CWR22R) | IC50 (HEK293) | other results
9 | 2.3 µM | > 40 µM | 1.6 µM | Cc1ccc(N=S(C)(=O)c2c[nH]c3ccccc23)cc1 (configuration not stated) | > 40 µM |  | IC50 at 48 h [2]: 40 µM
10 | 3.7 µM | > 40 µM | 40 µM | CS(=O)(=Nc1ccc(F)cc1)c1c[nH]c2ccccc12 (configuration not stated) | 40 µM | > 40 µM | 
11 | 2.18 µM |  | 2 µM | CS(=O)(=Nc1cccc(C(F)(F)F)c1)c1c[nH]c2ccccc12 (configuration not stated) | > 40 µM |  | IC50 at 48 h [2]: 40 µM
12 | 1.95 µM | 17.1 µM | > 40 µM | COc1ccc(N=S(C)(=O)c2c[nH]c3ccccc23)cc1 (configuration not stated) | 3.31 µM | > 40 µM | 
13 | 8.2 µM | 3.51 µM | 1.7 µM | COc1ccc(N=S(C)(=O)c2c[nH]c3cc(F)ccc23)cc1 (configuration not stated) | 1.91 µM |  | Activity (Tubulin (Homo sapiens) [4]): 13%; Activity (LNCaP C4-2 [5]): Active; Activity (LNCaP C4-2 [6]): Active; IC50 at 48 h [2]: > 40 µM; Activity (LNCaP C4-2 [7]): Active; Activity (LNCaP C4-2 [8]): Active; Activity (Cell membrane [9]): Active; inhibition (LNCaP C4-2 [10]): Active; inhibition (LNCaP C4-2 [11]): Active; Activity (LNCaP C4-2 [12]): Active; Activity (Tubulin (Homo sapiens) [13]): Active; Activity (Tubulin (Homo sapiens) [14]): Active
14 | 1.9 µM | 14.4 µM | > 40 µM | CS(=O)(=Nc1ccc(F)c(F)c1)c1c[nH]c2ccccc12 (configuration not stated) | 40 µM | > 40 µM | 
